Results reported in US12180193B2, “Accelerating fibrosarcoma protein degrading compounds and associated methods of use” (Arvinas Operations, Inc., priority 2020, dated 2024).

Experiments:
BRAF V600E = target: T1, BRAF V600E (Homo sapiens, UniProt P15056, V600E); test: Cellular assay of target protein degradation, T-Rex 293 cells stably transfected with HA-BRAF_V600E (HA immunofluorescence, high content imaging); format: cell-based; settings: T-Rex 293 HA-BRAF V600E; for DC50: half maximal degradation, read-out: BRaf V600E DC50; for Dmax: maximum degradation observed
T1 construct: expressed in transfected cells
Method in brief: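 Read-out is anti-HA immunofluorescence quantified by high-content imaging, giving half-maximal degradation concentration (DC50) and maximum degradation (Dmax, percent of control). Cells expressed the construct under 1 ng/mL doxycycline and received compound (1 μM to 0.1 nM final, 0.1% DMSO) for 24 h at 37 °C.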

BRAF G466V = target: T2, BRAF G466V (Homo sapiens, UniProt P15056, G466V); test: Cellular assay of target protein degradation, T-Rex 293 cells stably transfected with HA-BRAF G466V (HA immunofluorescence, high content imaging); format: cell-based; settings: T-Rex 293 HA-BRAF G466V; for DC50: half maximal degradation, read-out: BRaf G466V DC50; for Dmax: maximum degradation observed
T2 construct: expressed in transfected cells
Method in brief: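 First, stably transfected T-Rex 293 cells were plated with 0.75 ng/mL doxycycline and grown for 24 hours. Next, compound (final 30 nM to 3 pM, 0.1% DMSO) was added for another 24 hours at 37° C. Finally, cells were fixed, stained for HA and imaged.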

T1 sequence (P15056 whole entry V600E): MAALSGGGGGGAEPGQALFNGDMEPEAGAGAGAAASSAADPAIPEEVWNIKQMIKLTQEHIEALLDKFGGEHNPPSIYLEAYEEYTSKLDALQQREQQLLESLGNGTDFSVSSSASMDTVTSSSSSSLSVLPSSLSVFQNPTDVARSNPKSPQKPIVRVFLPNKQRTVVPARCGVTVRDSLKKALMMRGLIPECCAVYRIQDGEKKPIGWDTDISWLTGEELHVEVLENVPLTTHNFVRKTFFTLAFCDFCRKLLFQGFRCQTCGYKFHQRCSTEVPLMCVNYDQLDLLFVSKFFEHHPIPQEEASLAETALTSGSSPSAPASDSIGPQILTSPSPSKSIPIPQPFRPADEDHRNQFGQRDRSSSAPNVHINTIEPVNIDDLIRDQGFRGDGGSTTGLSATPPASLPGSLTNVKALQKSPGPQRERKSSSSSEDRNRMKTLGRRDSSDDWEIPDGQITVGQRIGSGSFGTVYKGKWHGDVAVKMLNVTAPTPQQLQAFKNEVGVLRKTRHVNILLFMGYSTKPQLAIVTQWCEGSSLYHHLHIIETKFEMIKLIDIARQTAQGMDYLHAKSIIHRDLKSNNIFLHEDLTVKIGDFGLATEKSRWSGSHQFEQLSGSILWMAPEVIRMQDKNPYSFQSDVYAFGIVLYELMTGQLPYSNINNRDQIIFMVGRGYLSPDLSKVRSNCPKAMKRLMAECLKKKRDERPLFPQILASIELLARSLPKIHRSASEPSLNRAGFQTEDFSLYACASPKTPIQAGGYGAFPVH
T2 sequence (P15056 whole entry G466V): as the sequence (P15056 whole entry V600E) above, with G466V, E600V counted along it

| SMILES | DC50 (BRAF V600E) [nM] | Dmax (BRAF V600E) [%] | DC50 (BRAF G466V) [nM] | Dmax (BRAF G466V) [%] |
| --- | --- | --- | --- | --- |
| O=C1CC[C@H](N2Cc3cc(C4CCN(CC5CCN(c6ccc(-c7cnc8[nH]cc(C(=O)c9c(F)ccc(NS(=O)(=O)N%10CC[C@@H](O)C%10)c9F)c8c7)cc6)CC5)CC4)ccc3C2=O)C(=O)N1 [Compound 278, (3R)-N-{3-[5-(4-{4-[(4-{2-[(3S)-2,6-dioxopiperidin-3-yl]-1-oxo-2,3-dihydro-1H-isoindol-5-yl}piperidin-1-yl)methyl]piperidin-1-yl}phenyl)-1H-pyrrolo [2,3-b]pyridine-3-carbonyl]-2,4-difluorophenyl}-3-hydroxypyrrolidine-1-sulfonamide] | 5 to 50 | 35 to 70 | 1 to 10 | 35 to 70 |
| O=C1CC[C@H](N2Cc3cc(C4CCN(CC5CCN(c6ccc(-c7cnc8[nH]cc(C(=O)c9c(F)ccc(NS(=O)(=O)N%10CC(O)C%10)c9F)c8c7)cc6)CC5)CC4)ccc3C2=O)C(=O)N1 [Compound 279, N-{3-[5-(4-{4-[(4-{2-[(3S)-2,6-dioxopiperidin-3-yl]-1-oxo-2,3-dihydro-1H-isoindol-5-yl}piperidin-1-yl)methyl]piperidin-1-yl}phenyl)-1H-pyrrolo[2,3-b]pyridine-3-carbonyl]-2,4-difluorophenyl}-3-hydroxyazetidine-1-sulfonamide] | 5 to 50 | < 35 | 10 to 30 | > 70 |
| CN(CCO)S(=O)(=O)Nc1ccc(F)c(C(=O)c2c[nH]c3ncc(-c4ccc(N5CCC(CN6CCC(c7ccc8c(c7)CN([C@H]7CCC(=O)NC7=O)C8=O)CC6)CC5)cc4)cc23)c1F [Compound 280, (3S)-3-(5-{1-[(1-{4-[3-(2,6-difluoro-3-{[(2-hydroxyethyl)(methyl)sulfamoyl]amino}benzoyl)-1H-pyrrolo[2,3-b]pyridin-5-yl]phenyl}piperidin-4-yl)methyl]piperidin-4-yl}-1-oxo-2,3-dihydro-1H-isoindol-2-yl) piperidine-2,6-dione] | 5 to 50 | 35 to 70 | 1 to 10 | 35 to 70 |
| CN(C1CC1)S(=O)(=O)Nc1ccc(F)c(C(=O)c2c[nH]c3ncc(-c4ccc(N5CCC(CN6CCC(c7ccc8c(c7)CN([C@H]7CCC(=O)NC7=O)C8=O)CC6)CC5)cc4)cc23)c1F [Compound 281, (3S)-3-(5-{1-[(1-{4-[3-(3-{[cyclopropyl(methyl)sulfamoyl]amino}-2,6-difluorobenzoyl)-1H-pyrrolo[2,3-b]pyridin-5-yl]phenyl}piperidin-4-yl)methyl]piperidin-4-yl}-1-oxo-2,3-dihydro-1H-isoindol-2-yl) piperidine-2,6-dione] | 5 to 50 | 35 to 70 | 1 to 10 | 35 to 70 |
| O=C1CC[C@H](N2Cc3cc(C4CCN(CC5CCN(c6ccc(-c7cnc8[nH]cc(C(=O)c9c(F)ccc(NS(=O)(=O)CCO)c9F)c8c7)cc6)CC5)CC4)ccc3C2=O)C(=O)N1 [Compound 282, N-{3-[5-(4-{4-[(4-{2-[(3S)-2,6-dioxopiperidin-3-yl]-1-oxo-2,3-dihydro-1H-isoindol-5-yl}piperidin-1-yl)methyl]piperidin-1-yl}phenyl)-1H-pyrrolo[2,3-b]pyridine-3-carbonyl]-2,4-difluorophenyl}-2-hydroxyethane-1-sulfonamide] | 50 to 500 | 35 to 70 | 1 to 10 | > 70 |
| COc1c(NS(=O)(=O)N2CC[C@@H](F)C2)ccc(F)c1C(=O)c1c[nH]c2ncc(-c3ccc(N4CCC(CN5CCC(c6ccc7c(c6)CN(C6CCC(=O)NC6=O)C7=O)CC5)CC4)cc3)cc12 (stereo partly drawn) [Compound 283, (3R)-N-[3-(5-{4-[4-({4-[2-(2,6-dioxopiperidin-3-yl)-1-oxo-2,3-dihydro-1H-isoindol-5-yl]piperidin-1-yl}methyl)piperidin-1-yl]phenyl}-1H-pyrrolo[2,3-b]pyridine-3-carbonyl)-4-fluoro-2-methoxyphenyl]-3-fluoropyrrolidine-1-sulfonamide] | 5 to 50 | 35 to 70 | 1 to 10 | > 70 |
| CNc1cc(-c2cnc3[nH]cc(C(=O)c4c(F)ccc(NS(=O)(=O)N5CC[C@@H](F)C5)c4F)c3c2)cc(NC)c1N1CCC(CN2CCC(c3ccc4c(c3)CN([C@H]3CCC(=O)NC3=O)C4=O)CC2)CC1 [Compound 284, (3R)-N-{3-[5-(4-{4-[(4-{2-[(3S)-2,6-dioxopiperidin-3-yl]-1-oxo-2,3-dihydro-1H-isoindol-5-yl}piperidin-1-yl)methyl]piperidin-1-yl}-3,5-bis(methylamino)phenyl)-1H-pyrrolo[2,3-b]pyridine-3-carbonyl]-2,4-difluorophenyl}-3-fluoropyrrolidine-1-sulfonamide] | 5 to 50 | 35 to 70 | 1 to 10 | > 70 |
| CNc1cc(-c2cnc3[nH]cc(C(=O)c4c(F)ccc(NS(=O)(=O)N5CC[C@@H](F)C5)c4F)c3c2)cc(NC)c1N1CCC(CN2CCC(c3ccc4c(c3)CN(C3CCC(=O)NC3=O)C4=O)CC2)CC1 (stereo partly drawn) [Compound 285, (3R)-N-[3-(5-{4-[4-({4-[2-(2,6-dioxopiperidin-3-yl)-1-oxo-2,3-dihydro-1H-isoindol-5-yl]piperidin-1-yl}methyl)piperidin-1-yl]-3,5-bis(methylamino)phenyl}-1H-pyrrolo[2,3-b]pyridine-3-carbonyl)-2,4-difluorophenyl]-3-fluoropyrrolidine-1-sulfonamide] | 5 to 50 | < 35 | 1 to 10 | 35 to 70 |
| O=C1CC[C@@H](N2Cc3cc(N4CC(CN5CCN(C6(c7ncc(-c8cnc9[nH]cc(C(=O)c%10c(F)ccc(NS(=O)(=O)N%11CC[C@@H](F)C%11)c%10F)c9c8)cn7)CC6)CC5)C4)ccc3C2=O)C(=O)N1 [Compound 286, (3R)-N-(3-{5-[2-(1-{4-[(1-{2-[(3R)-2,6-dioxopiperidin-3-yl]-1-oxo-2,3-dihydro-1H-isoindol-5-yl}azetidin-3-yl)methyl]piperazin-1-yl}cyclopropyl)pyrimidin-5-yl]-1H-pyrrolo[2,3-b]pyridine-3-carbonyl}-2,4-difluorophenyl)-3-fluoropyrrolidine-1-sulfonamide] | 50 to 500 | 35 to 70 | 1 to 10 | 35 to 70 |
| CN(c1ncc(-c2cnc3[nH]cc(C(=O)c4c(F)ccc(NS(=O)(=O)N5CC[C@@H](F)C5)c4F)c3c2)cn1)C1CCN(CC2CCN(c3ccc4c(c3)CN([C@H]3CCC(=O)NC3=O)C4=O)CC2)CC1 [Compound 287, (3R)-N-(3-{5-[2-({1-[(1-{2-[(3S)-2,6-dioxopiperidin-3-yl]-1-oxo-2,3-dihydro-1H-isoindol-5-yl}piperidin-4-yl)methyl]piperidin-4-yl}(methyl)amino)pyrimidin-5-yl]-1H-pyrrolo[2,3-b]pyridine-3-carbonyl}-2,4-difluorophenyl)-3-fluoropyrrolidine-1-sulfonamide] | 5 to 50 | 35 to 70 | 1 to 10 | 35 to 70 |
| O=C1CC[C@H](N2Cc3cc(N4CCC(CN5CCN(C6(c7ccc(-c8cnc9[nH]cc(C(=O)c%10c(F)ccc(NS(=O)(=O)N%11CC[C@@H](F)C%11)c%10F)c9c8)cn7)CC6)CC5)CC4)ccc3C2=O)C(=O)N1 [Compound 288, (3R)-N-(3-{5-[6-(1-{4-[(1-{2-[(3S)-2,6-dioxopiperidin-3-yl]-1-oxo-2,3-dihydro-1H-isoindol-5-yl}piperidin-4-yl)methyl]piperazin-1-yl}cyclopropyl)pyridin-3-yl]-1H-pyrrolo[2,3-b]pyridine-3-carbonyl}-2,4-difluorophenyl)-3-fluoropyrrolidine-1-sulfonamide] | 50 to 500 | 35 to 70 | > 30 | > 70 |
| C[C@@H](c1ncc(-c2cnc3[nH]cc(C(=O)c4c(F)ccc(NS(=O)(=O)N5CC[C@@H](F)C5)c4F)c3c2)cn1)N1CCN(CC2CCN(c3ccc4c(c3)CN([C@H]3CCC(=O)NC3=O)C4=O)CC2)CC1 [Compound 289, (3R)-N-[3-(5-{2-[(1S)-1-{4-[(1-{2-[(3S)-2,6-dioxopiperidin-3-yl]-1-oxo-2,3-dihydro-1H-isoindol-5-yl}piperidin-4-yl)methyl]piperazin-1-yl}ethyl]pyrimidin-5-yl}-1H-pyrrolo[2,3-b]pyridine-3-carbonyl)-2,4-difluorophenyl]-3-fluoropyrrolidine-1-sulfonamide] | 50 to 500 | 35 to 70 | 10 to 30 | 35 to 70 |
| C[C@H](c1ncc(-c2cnc3[nH]cc(C(=O)c4c(F)ccc(NS(=O)(=O)N5CC[C@@H](F)C5)c4F)c3c2)cn1)N1CCN(CC2CCN(c3ccc4c(c3)CN([C@H]3CCC(=O)NC3=O)C4=O)CC2)CC1 [Compound 290, (3R)-N-[3-(5-{2-[(1R)-1-{4-[(1-{2-[(3S)-2,6-dioxopiperidin-3-yl]-1-oxo-2,3-dihydro-1H-isoindol-5-yl}piperidin-4-yl)methyl]piperazin-1-yl}ethyl]pyrimidin-5-yl}-1H-pyrrolo[2,3-b]pyridine-3-carbonyl)-2,4-difluorophenyl]-3-fluoropyrrolidine-1-sulfonamide] | 50 to 500 | 35 to 70 | 1 to 10 | 35 to 70 |
| O=C1CCC(N2Cc3cc(N4CCC(C5CN(c6ccc(-c7cnc8[nH]cc(C(=O)c9c(F)ccc(NS(=O)(=O)N%10CC[C@@H](F)C%10)c9F)c8c7)cc6)C5)CC4)ccc3C2=O)C(=O)N1 (stereo partly drawn) [Compound 293, (3R)-N-(3-{5-[4-(3-{1-[2-(2,6-dioxopiperidin-3-yl)-1-oxo-2,3-dihydro-1H-isoindol-5-yl]piperidin-4-yl}azetidin-1-yl)phenyl]-1H-pyrrolo[2,3-b]pyridine-3-carbonyl}-2,4-difluorophenyl)-3-fluoropyrrolidine-1-sulfonamide] | 50 to 500 | 35 to 70 | 1 to 10 | 35 to 70 |
